Assay: 30 day drop test, API retention after dropper tip packed with OxPO
Format: physicochemical
Conditions: for API concentration in drops: tip packed with OxHDPE A-C 395, 125-250 μm, acid washed
Protocol: To 60.0 g of ultrapure water was added 0.090 g hydroxyethyl cellulose (Natrosol 250H) and the solution was stirred overnight to dissolve. Subsequently, 0.176 g sodium citrate dihydrate and 0.960 g mannitol were added and the mixture was stirred until completely dissolved. 1.37 g Dorzolamide Hydrochloride, 0.420 g Timolol Maleate and 0.045 g of a 10% aqueous solution of BAK were added and incorporated. The pH was adjusted to 5.65 with 0.01N NaOH solution. The final nominal concentrations are reported below.
An empty dropper tip equipped with a 25 μm filter at the tip exit was packed with approximately […] of OxPO and the backing filter was attached to retain the OxPO packing in place. The weight of the OxPO packing was recorded. The packed tip was then inserted into the neck of an 8 ml dropper bottle containing 5 ml of the API/BAK test solution.
5 ml of the formulation described above containing nominally 5.0 mg/ml Timolol, 20.0 mg/ml Dorzolamide and 75 μg/ml BAK was loaded into six eyedropper bottles packed with OxHDPE (A-C 395, 125-250 μm, acid washed) as described above. Drops were obtained from each bottle twice a day (AM and PM 8 hours apart) and analyzed by HPLC for API and BAK.

CCN[C@H]1C[C@H](C)S(=O)(=O)c2sc(S(N)(=O)=O)cc21 [Dorzolamide]
API concentration in drops (Day 1A): 20.0 mg/mL
API concentration in drops (Day 1P): 20.1 mg/mL
API concentration in drops (Day 2A): 19.2 mg/mL
API concentration in drops (Day 2P): 19.4 mg/mL
API concentration in drops (Day 3A): 19.5 mg/mL
API concentration in drops (Day 3P): 19.6 mg/mL
API concentration in drops (Day 4A): 19.3 mg/mL
API concentration in drops (Day 4P): 19.7 mg/mL
API concentration in drops (Day 5A): 19.7 mg/mL
API concentration in drops (Day 5P): 19.8 mg/mL
API concentration in drops (Day 6A): 19.8 mg/mL
API concentration in drops (Day 6P): 20.2 mg/mL
API concentration in drops (Day 7A): 20.3 mg/mL
API concentration in drops (Day 7P): 20.3 mg/mL
API concentration in drops (Day 8A): 20.1 mg/mL
API concentration in drops (Day 8P): 20.2 mg/mL
API concentration in drops (Day 9A): 19.8 mg/mL
API concentration in drops (Day 9P): 19.5 mg/mL
API concentration in drops (Day 10A): 19.8 mg/mL
API concentration in drops (Day 10P): 20.1 mg/mL
API concentration in drops (Day 11A): 19.9 mg/mL
API concentration in drops (Day 11P): 19.9 mg/mL
API concentration in drops (Day 12A): 19.8 mg/mL
API concentration in drops (Day 12P): 19.9 mg/mL
API concentration in drops (Day 13A): 19.9 mg/mL
API concentration in drops (Day 13P): 19.9 mg/mL
API concentration in drops (Day 14A): 19.7 mg/mL
API concentration in drops (Day 14P): 20.0 mg/mL
API concentration in drops (Day 15A): 19.8 mg/mL
API concentration in drops (Day 15P): 19.9 mg/mL
API concentration in drops (Day 16A): 19.5 mg/mL
API concentration in drops (Day 16P): 19.8 mg/mL
API concentration in drops (Day 17A): 19.4 mg/mL
API concentration in drops (Day 17P): 19.4 mg/mL
API concentration in drops (Day 18A): 19.7 mg/mL
API concentration in drops (Day 18P): 19.6 mg/mL
API concentration in drops (Day 19A): 19.2 mg/mL
API concentration in drops (Day 19P): 19.5 mg/mL
API concentration in drops (Day 20A): 19.6 mg/mL
API concentration in drops (Day 20P): 19.7 mg/mL
API concentration in drops (Day 21A): 19.6 mg/mL
API concentration in drops (Day 21P): 19.7 mg/mL
API concentration in drops (Day 22A): 20.0 mg/mL
API concentration in drops (Day 22P): 19.5 mg/mL
API concentration in drops (Day 23A): 19.8 mg/mL
API concentration in drops (Day 23P): 19.8 mg/mL
API concentration in drops (Day 24A): 19.8 mg/mL
API concentration in drops (Day 24P): 19.8 mg/mL
API concentration in drops (Day 25A): 19.6 mg/mL
API concentration in drops (Day 25P): 19.7 mg/mL
API concentration in drops (Day 26A): 20.2 mg/mL
API concentration in drops (Day 26P): 20.1 mg/mL
API concentration in drops (Day 27A): 20.1 mg/mL
API concentration in drops (Day 27P): 20.1 mg/mL
API concentration in drops (Day 28A): 20.1 mg/mL
API concentration in drops (Day 28P): 19.9 mg/mL
API concentration in drops (Day 29A): 19.6 mg/mL
API concentration in drops (Day 29P): 19.6 mg/mL
API concentration in drops (Day 30A): 20.1 mg/mL
API concentration in drops (Day 30P): 20.1 mg/mL
API concentration (Initial formulation): 21.0 (mg/ml)
